What all share (experiment): Agarose dilution MIC assay
Format in all cases: cell-based

The subject of assay [1] is K. pneumoniae. Particulars: K. pnenmoniae strain KPN001. The source says:
(§1) The agarose dilution assay measures antimicrobial activity of peptides and peptide analogues. The activity is expressed as the minimum inhibitory concentration (MIC) in μg/ml of the peptide.
(§2) In order to mimic in vivo conditions, calcium and magnesium supplemented Mueller Hinton broth is used in combination with a low EEO agarose as the bacterial growth medium. Agarose, rather than agar, is used as the charged groups in agar prevent peptide diffusion through the medium. The medium is autoclaved, then cooled to 50-55° C. in a water bath before aseptic addition of a peptide solution. The same volume of different concentrations of peptide solution is added to the cooled, molten agarose that is then poured into a petri plate to a depth of 3-4 mm and allowed to solidify.
(§3) The bacterial inoculum is adjusted to a 0.5 McFarland turbidity standard (PML Microbiological) and then diluted 1:10 before application on to the agarose plate. The final inoculum applied to the agarose is approximately 10^4 CFU in a 5-8 mm diameter spot. The agarose plates are incubated at 35-37° C. for 16 to 20 hours.

For assay [2], the system named is C. jeikeium. Particulars: C. jeikeium strain CJK005.
Description: as §1, §2, §3

For assay [3], the system named is C. neoformans. Particulars: C. neoformans strain CNE001.
Description: as §1, §2, §3

Assay [4] concerns C. albicans. Particulars: C. albicans strain CAL002; agarose dilution.
Description: as §1, §2, §3

Assay [5] has as its system P. aeruginosa. Particulars: P. aeruginosa strain PAE004; agarose dilution.
Description: as §1, §2, §3

The subject of assay [6] is S. marcescens. Particulars: S. marcescens strain SMS003.
Description: as §1, §2, §3

The subject of assay [7] is E. coli. Particulars: E. coli strain ECO005.
Description: as §1, §2, §3

The subject of assay [8] is S. aureus. Particulars: S. aureus strain SAU014; agarose dilution.
Description: as §1, §2, §3

Assay [9] relates to A. calcoaceticus. Particulars: A. calcoaceticus strain ACA002.
Description: as §1, §2, §3

For assay [10], the system named is S. pyogenes. Particulars: S. pyogenes strain SPY001.
Description: as §1, §2, §3

The test system of assay [11] is E. cloacae. Particulars: E. cloacae strain ECL007.
Description: as §1, §2, §3

In assay [12] the test system is S. epidermidis. Particulars: S. epidermidis strain SEP010; agarose dilution.
Description: as §1, §2, §3

Assay [13] has as its system S. pneumoniae. Particulars: S. pneumoniae strain SPN002.
Description: as §1, §2, §3

Assay [14] relates to E. faecalis. Particulars: E. faecalis strain EFS001.
Description: as §1, §2, §3

Assay [15] deals with S. mitis. Particulars: S. mitis strain SMT014.
Description: as §1, §2, §3

Assay [16] deals with S. maltophilia. Particulars: S. maltophilia strain SMA002.
Description: as §1, §2, §3

Some results are limits rather than exact numbers.

“I L R R W V W W V W R R K [Peptide 11F5CN]”: the “Minimum Inhibitory Concentration” value in assay [1] is 64 µg/mL; in assay [2], 0.5 µg/mL; in [3], 8 µg/mL; in [4], 32 µg/mL; in assay [5] it was 64 µg/mL; in assay [6], >128 µg/mL. The “Minimum Inhibitory Concentration” value in [7] is 16 µg/mL; in assay [8], 8 µg/mL; in assay [9], 4 µg/mL; in [10], 2 µg/mL; in assay [11] it was 128 µg/mL; in assay [12], 2 µg/mL. The “Minimum Inhibitory Concentration” value in assay [13] was determined as 4 µg/mL; in [14], 16 µg/mL; in assay [15], 2 µg/mL; in [16] it was 16 µg/mL.
For R L W W V V W W R R [Peptide 11F56CN], the “Minimum Inhibitory Concentration” value in [1] was 2 µg/mL; in assay [2], 0.5 µg/mL; in assay [3], 8 µg/mL; in assay [4] it was 16 µg/mL; in assay [5], 32 µg/mL; in assay [6], >128 µg/mL. The “Minimum Inhibitory Concentration” value is 2 µg/mL in assay [7]; 1 µg/mL in assay [8]; 1 µg/mL in assay [9]; 1 µg/mL in assay [10]; 32 µg/mL in assay [11]; 1 µg/mL in [12]. The “Minimum Inhibitory Concentration” value in [13] is 2 µg/mL; in [14] it was 2 µg/mL; in [15], 1 µg/mL; in [16], 2 µg/mL.
As to R L W V W W V W R r [Peptide 11F68CN], the “Minimum Inhibitory Concentration” value in assay [1] was 2 µg/mL; in assay [2], 0.5 µg/mL; in assay [3], 8 µg/mL; in assay [4], 32 µg/mL; in assay [5], 32 µg/mL; in assay [6], >128 µg/mL. Besides, the “Minimum Inhibitory Concentration” value in assay [7] was 2 µg/mL; in [8], 2 µg/mL; in assay [9], 1 µg/mL; in assay [10] it was 1 µg/mL; in [11], 32 µg/mL; in assay [12], 1 µg/mL. Moreover, the “Minimum Inhibitory Concentration” value in assay [13] was determined as 2 µg/mL; in [14], 2 µg/mL; in [15], 1 µg/mL; in assay [16], 2 µg/mL.
Take R L V V W W V V R R [Peptide 11F63CN]: the “Minimum Inhibitory Concentration” value in assay [1] is 4 µg/mL; in [2], 1 µg/mL; in assay [3], 8 µg/mL; in assay [4] it was 16 µg/mL; in assay [5], 8 µg/mL; in assay [6], >128 µg/mL. In addition, the “Minimum Inhibitory Concentration” value is 2 µg/mL in assay [7]; 2 µg/mL in [8]; 2 µg/mL in [9]; 1 µg/mL in [10]; 16 µg/mL in [11]; 1 µg/mL in [12]. In addition, the “Minimum Inhibitory Concentration” value was determined as 4 µg/mL in assay [13], 4 µg/mL in [14], 2 µg/mL in assay [15] and 0.5 µg/mL in assay [16].
On to “R L G G G W V W W V W R R [Peptide 11F50CN]”, for which the “Minimum Inhibitory Concentration” value in [1] was 16 µg/mL; in [2], 0.5 µg/mL; in assay [3] it was 16 µg/mL; in assay [4] it was 32 µg/mL; in assay [5], >128 µg/mL; in assay [6] it was >128 µg/mL. In addition, the “Minimum Inhibitory Concentration” value in assay [7] is 4 µg/mL; in assay [8] it was 2 µg/mL; in assay [9] it was 2 µg/mL; in assay [10], 1 µg/mL; in assay [11] it was >128 µg/mL; in [12], 1 µg/mL. The “Minimum Inhibitory Concentration” value in [13] was found to be 2 µg/mL; in [14], 16 µg/mL; in [15], 1 µg/mL; in assay [16] it was 8 µg/mL.

(Values after US6835536B2, “Antimicrobial cationic peptides and formulations thereof” (Micrologix Biotech Inc., priority 2001, dated 2004).)
